Source: US20050009005A1, “Methods of using quantitative lipid metabolome data” (Lipomics Technologies, Inc., priority 2001, published 2005)

System: de novo fatty acid synthesis
Assay: Lipid metabolite profile of plasma, heart, liver and inguinal adipose of CL316,243-treated mice (trial 2; Tables 7 and 8)
Format: in vivo
Settings: for Total n9 / 14:0 / 16:0 / 16:1n7 / 18:0 / 18:1n7 / 18:1n9 / Saturates / Total n7 / Total nMole of FA: mean
Text: It is understood that the described methods can be used to analyze lipid metabolites from other subjects, including particularly animals other than mice.
Mouse tissue and plasma samples were a generous donation to Lipomics Technologies, Inc., from Dr. Edward Leiter of the Jackson Laboratory (Bar Harbor, Me.). Samples included the plasma, heart, liver and inguinal adipose of mice treated with pharmaceuticals or their corresponding controls.
In trial 2, male, inbred NON mice were fed a control with or without the presence of the β-3 adrenergic agonist CL316,243 for four weeks (at 0.001% CL316,243 by weight in the dietary chow).
In both studies, five treated and five control mice were used. Following the treatments and the killing of the mice, tissues and plasma were taken, chilled to −80 ° C. and shipped to the analysis laboratory at Lipomics Technologies in a frozen state.
Tissue processing and lipid extraction, including provision of internal standards, was carried out essentially as described in Watkins et al. (J. Lipid Res. Papers in Press, 10.1184/jlf.M200169-JLF200, published August 16, 2002), and in co-owned international application PCT/US02/21426, entitled “GENERATING, VIEWING, INTERPRETING, AND UTILIZING A QUANTITATIVE DATABASE OF METABOLITES,” both of which are incorporated in their entirety herein by reference.
The separation of lipid classes was performed in some instance by preparative thin-layer chromatography (TLC). To remove any residual metal or other damaging contaminants on the TLC plates, each plate was washed prior to use. Washing the plates is a three-step process that involves impregnating each plate with ethylenediamine tetraacetic acid (EDTA) and rinsing the plates once with methanol and once with chloroform. Each plate is first impregnated with 1 mM EDTA, pH 5.5, by ascending development using the method of Ruiz (J. Lipid Res. 38, 1482-1489, 1997). After each plate was completely developed, it was dried in air overnight. Once dry, each plate was developed in methanol, dried, and developed in chloroform in the same direction as the development with EDTA. The washed plates were then dried in air. Just prior to use, each plate was activated by heating to 110° C. for 10 minutes.
To prepare the TLC chamber for chromatography, Whatman (Clifton, N.J.) filter paper was cut into 20×80-cm strips and wrapped around the inside wall of a 30×60×10-cm glass development chamber. One hundred milliliters of the appropriate mobile phase was added to the chamber, and the chambers were sealed and allowed to equilibrate. Chambers were considered equilibrated when the solvent front had completely ascended the filter paper. The mobile phase employed for the separation of phospholipid classes (lyso-phospholipids, sphingomyelin, phosphatidylcholine, phosphatidylserine, phosphatidylethanolamine and cardiolipin) was a modification of the solvent system described by Holub and Skeaf (“Nutritional regulation of cellular phosphatidylinositol,” in Methods in Enzymology, ed. Conn, P. M. (Academic Press, Inc., Orlando), pp. 234-243, 1987) consisting of chloroform/methanol/acetic acid/water (100:67:7:4, by volume).
For the separation of neutral lipid classes (free fatty acids, free sterols, triacylglycerides and cholesterol esters), a solvent system consisting of petroleum ether/diethyl ether/acetic acid (80:20:1, by volume) was used (Mangold, Thin Layer Chromatography—A Laboratory Handbook (Springer-Verlag, New York), 1969).
After the TLC plate was activated, the sample extracts were spotted onto the activated plate. As a general rule, samples were spotted at an estimated concentration such that no single lipid class was present at more than 25 jig per centimeter of plate width following chromatography. This ensured that the plate was not overloaded and minimized the risk of cross-contamination between lipid classes (cross-contamination is readily identified during sample analysis as each lipid class contains unique internal standards). […]

SMILES: C[C@H](Cc1ccc2c(c1)OC(C(=O)[O-])(C(=O)[O-])O2)NC[C@H](O)c1cccc(Cl)c1.[Na+].[Na+] [CL316,243]
- Total n9 (Liver, lipid class PS/I): 5.4 percentage of total fatty acids
- 14:0 (Liver, lipid class TAG): 1.1 percentage of total fatty acids
- 16:0 (Liver, lipid class TAG): 32.1 percentage of total fatty acids
- 16:1n7 (Liver, lipid class TAG): 3.2 percentage of total fatty acids
- 18:0 (Liver, lipid class TAG): 3.3 percentage of total fatty acids
- 18:1n7 (Liver, lipid class TAG): 2.9 percentage of total fatty acids
- 18:1n9 (Liver, lipid class TAG): 34.1 percentage of total fatty acids
- 14:0 (Plasma, CE): 21.2 nanomoles per gram
- 16:0 (Plasma, CE): 114.4 nanomoles per gram
- 16:1n7 (Plasma, CE): 84.9 nanomoles per gram
- 18:0 (Plasma, CE): 16.5 nanomoles per gram
- 18:1n7 (Plasma, CE): 13.5 nanomoles per gram
- 18:1n9 (Plasma, CE): 194.2 nanomoles per gram
- Saturates (Plasma, CE): 162.9 nanomoles per gram
- Total n7 (Plasma, CE): 98.4 nanomoles per gram
- Total n9 (Plasma, CE): 198.7 nanomoles per gram
- Total nMole of FA (Plasma, CE): 2584.1 nanomoles per gram
- 14:0 (Plasma, FFA): 22.1 nanomoles per gram
- 16:0 (Plasma, FFA): 102.3 nanomoles per gram
- 16:1n7 (Plasma, FFA): 15.4 nanomoles per gram
- 18:0 (Plasma, FFA): 36.9 nanomoles per gram
- 18:1n7 (Plasma, FFA): 9.8 nanomoles per gram
- 18:1n9 (Plasma, FFA): 160.6 nanomoles per gram
- Saturates (Plasma, FFA): 167.7 nanomoles per gram
- Total n7 (Plasma, FFA): 25.2 nanomoles per gram
- Total n9 (Plasma, FFA): 163.1 nanomoles per gram
- Total nMole of FA (Plasma, FFA): 424.7 nanomoles per gram
- 14:0 (Plasma, LysoPC): 2.9 nanomoles per gram
- 16:0 (Plasma, LysoPC): 241.6 nanomoles per gram
- 16:1n7 (Plasma, LysoPC): 4.8 nanomoles per gram
- 18:0 (Plasma, LysoPC): 127.4 nanomoles per gram
- 18:1n7 (Plasma, LysoPC): 6.9 nanomoles per gram
- 18:1n9 (Plasma, LysoPC): 47.5 nanomoles per gram
- Saturates (Plasma, LysoPC): 381.9 nanomoles per gram
- Total n7 (Plasma, LysoPC): 11.8 nanomoles per gram
- Total n9 (Plasma, LysoPC): 49.4 nanomoles per gram
- Total nMole of FA (Plasma, LysoPC): 643.1 nanomoles per gram
- 14:0 (Plasma, PC): 5.5 nanomoles per gram
- 16:0 (Plasma, PC): 1121.4 nanomoles per gram
- 16:1n7 (Plasma, PC): 15.3 nanomoles per gram
- 18:0 (Plasma, PC): 670.9 nanomoles per gram
- 18:1n7 (Plasma, PC): 58.8 nanomoles per gram
- 18:1n9 (Plasma, PC): 309.6 nanomoles per gram
- Saturates (Plasma, PC): 1820.6 nanomoles per gram
- Total n7 (Plasma, PC): 74.0 nanomoles per gram
- Total n9 (Plasma, PC): 320.0 nanomoles per gram
- Total nMole of FA (Plasma, PC): 1928.9 nanomoles per gram
- 14:0 (Plasma, PE): 4.1 nanomoles per gram
- 16:0 (Plasma, PE): 33.9 nanomoles per gram
- 16:1n7 (Plasma, PE): 3.3 nanomoles per gram
- 18:0 (Plasma, PE): 28.2 nanomoles per gram
- 18:1n7 (Plasma, PE): 2.5 nanomoles per gram
- 18:1n9 (Plasma, PE): 31.5 nanomoles per gram
- Saturates (Plasma, PE): 74.0 nanomoles per gram
- Total n7 (Plasma, PE): 5.8 nanomoles per gram
- Total n9 (Plasma, PE): 33.4 nanomoles per gram
- Total nMole of FA (Plasma, PE): 106.7 nanomoles per gram
- 14:0 (Plasma, PL): 7.6 nanomoles per gram
- 16:0 (Plasma, PL): 1315.0 nanomoles per gram
- 16:1n7 (Plasma, PL): 20.3 nanomoles per gram
- 18:0 (Plasma, PL): 847.2 nanomoles per gram
- 18:1n7 (Plasma, PL): 69.7 nanomoles per gram
- 18:1n9 (Plasma, PL): 380.8 nanomoles per gram
- Saturates (Plasma, PL): 2221.2 nanomoles per gram
- Total n7 (Plasma, PL): 90.0 nanomoles per gram
- Total n9 (Plasma, PL): 429.4 nanomoles per gram
- Total nMole of FA (Plasma, PL): 2464.5 nanomoles per gram
- 14:0 (Plasma, TAG): 17.6 nanomoles per gram
- 16:0 (Plasma, TAG): 219.3 nanomoles per gram
- 16:1n7 (Plasma, TAG): 33.1 nanomoles per gram
- 18:0 (Plasma, TAG): 45.7 nanomoles per gram
- 18:1n7 (Plasma, TAG): 23.7 nanomoles per gram
- 18:1n9 (Plasma, TAG): 268.3 nanomoles per gram
- Saturates (Plasma, TAG): 295.4 nanomoles per gram
- Total n7 (Plasma, TAG): 56.8 nanomoles per gram
- Total n9 (Plasma, TAG): 276.2 nanomoles per gram
- Total nMole of FA (Plasma, TAG): 344.8 nanomoles per gram
- 14:0 (Plasma, lipid class CE): 0.8 percentage of total fatty acids
- 16:0 (Plasma, lipid class CE): 4.5 percentage of total fatty acids
- 16:1n7 (Plasma, lipid class CE): 3.2 percentage of total fatty acids
- 18:0 (Plasma, lipid class CE): 0.7 percentage of total fatty acids
- 18:1n7 (Plasma, lipid class CE): 0.5 percentage of total fatty acids
- 18:1n9 (Plasma, lipid class CE): 7.5 percentage of total fatty acids
- 14:0 (Plasma, lipid class FFA): 5.7 percentage of total fatty acids
- 16:0 (Plasma, lipid class FFA): 28.1 percentage of total fatty acids
- 16:1n7 (Plasma, lipid class FFA): 3.2 percentage of total fatty acids
- 18:0 (Plasma, lipid class FFA): 10.0 percentage of total fatty acids
- 18:1n7 (Plasma, lipid class FFA): 2.1 percentage of total fatty acids
- 18:1n9 (Plasma, lipid class FFA): 31.0 percentage of total fatty acids
- 14:0 (Plasma, lipid class LY): 0.5 percentage of total fatty acids
- 16:0 (Plasma, lipid class LY): 37.8 percentage of total fatty acids
- 16:1n7 (Plasma, lipid class LY): 0.7 percentage of total fatty acids
- 18:0 (Plasma, lipid class LY): 20.1 percentage of total fatty acids
- 18:1n7 (Plasma, lipid class LY): 1.0 percentage of total fatty acids
- 18:1n9 (Plasma, lipid class LY): 7.2 percentage of total fatty acids
- 14:0 (Plasma, lipid class PC): 0.1 percentage of total fatty acids
- 16:0 (Plasma, lipid class PC): 29.0 percentage of total fatty acids
- 16:1n7 (Plasma, lipid class PC): 0.4 percentage of total fatty acids
- 18:0 (Plasma, lipid class PC): 17.5 percentage of total fatty acids
- 18:1n7 (Plasma, lipid class PC): 1.5 percentage of total fatty acids
- 18:1n9 (Plasma, lipid class PC): 7.9 percentage of total fatty acids
- 14:0 (Plasma, lipid class PE): 1.9 percentage of total fatty acids
- 16:0 (Plasma, lipid class PE): 16.1 percentage of total fatty acids
- 16:1n7 (Plasma, lipid class PE): 1.4 percentage of total fatty acids
- 18:0 (Plasma, lipid class PE): 13.5 percentage of total fatty acids
- 18:1n7 (Plasma, lipid class PE): 1.1 percentage of total fatty acids
- 18:1n9 (Plasma, lipid class PE): 13.1 percentage of total fatty acids
- 14:0 (Plasma, lipid class PL): 0.2 percentage of total fatty acids
- 16:0 (Plasma, lipid class PL): 26.6 percentage of total fatty acids
- 16:1n7 (Plasma, lipid class PL): 0.4 percentage of total fatty acids
- 18:0 (Plasma, lipid class PL): 17.3 percentage of total fatty acids
- 18:1n7 (Plasma, lipid class PL): 1.4 percentage of total fatty acids
- 18:1n9 (Plasma, lipid class PL): 7.7 percentage of total fatty acids
- 14:0 (Plasma, lipid class TAG): 1.7 percentage of total fatty acids
- 16:0 (Plasma, lipid class TAG): 21.1 percentage of total fatty acids
- 16:1n7 (Plasma, lipid class TAG): 3.2 percentage of total fatty acids
- 18:0 (Plasma, lipid class TAG): 4.4 percentage of total fatty acids
- 18:1n7 (Plasma, lipid class TAG): 2.3 percentage of total fatty acids
- 18:1n9 (Plasma, lipid class TAG): 25.8 percentage of total fatty acids
- palmitoleic acid concentrations in most lipid classes in heart, liver, adipose and plasma (male inbred NON mice, 0.001% CL316,243 in chow 4 weeks, vs controls (Tables 7 and 8)): substantial decrease
